According to PubChem BioAssay AID248 (DTP/NCI, 2004):
“And” between values parts separate entries of the source, which are not always exact repeats. Equal entries are not always repeated. Toxic doses and inconclusive results are not listed. No stated cut-off is given here; in the data, active means T/C of 150% or more; inactive means T/C below 125%.

Test system: L1210 leukemia ip in BDF1 mice, survival T/C
Test: NCI In Vivo Anticancer Drug Screen. Data for tumor model L1210 Leukemia (intraperitoneal) in B6D2F1 (BDF1) mice
Details: endpoint: mean survival time, higher = longer survival
Procedure, shortened: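 Value reflects the ratio of survival in compound-treated mice to survival in vehicle-treated controls, with both groups carrying the same transplanted tumor.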

[1] = dose: 100.0 mg/kg/injection, schedule: Q04DX002 (ip), vehicle: Klucel (hydroxypropylcellulose) (HPC)
[2] = dose: 200.0 mg/kg/injection, schedule: Q04DX002 (ip), vehicle: Klucel (hydroxypropylcellulose) (HPC)
[3] = dose: 100.0 mg/kg/injection, schedule: Q04DX003 (ip), vehicle: saline with Tween-80
[4] = dose: 200.0 mg/kg/injection, schedule: Q04DX003 (ip), vehicle: saline with Tween-80
[5] = dose: 400.0 mg/kg/injection, schedule: Q04DX003 (ip), vehicle: saline with Tween-80
[6] = dose: 100.0 mg/kg/injection, schedule: Q01DX009 (ip), vehicle: saline
[7] = dose: 200.0 mg/kg/injection, schedule: Q01DX009 (ip), vehicle: saline
[8] = dose: 50.0 mg/kg/injection, schedule: Q01DX009 (ip), vehicle: saline

Measured: T/C

Nn1cnc2c(ncn2C2OC(CO)C(O)C2O)c1=O (centres undefined)
inactive: dose: 100.0 mg/kg/injection, schedule: Q01DX005 (ip), vehicle: saline 88 % of control | dose: 200.0 mg/kg/injection, schedule: Q01DX005 (ip), vehicle: saline 100 % of control

CC(C)C[CH2][Pb]([CH2]CC(C)C)([CH2]CC(C)C)[O]C(=O)C(C)C
inactive: dose: 1.56 mg/kg/injection, schedule: Q01DX009 (ip), vehicle: Klucel (hydroxypropylcellulose) (HPC) 97 % of control | dose: 3.12 mg/kg/injection, schedule: Q01DX009 (ip), vehicle: Klucel (hydroxypropylcellulose) (HPC) 93 % of control | dose: 3.12 mg/kg/injection, schedule: Q04DX002 (ip), vehicle: Klucel (hydroxypropylcellulose) (HPC) 111 % of control | dose: 6.25 mg/kg/injection, schedule: Q04DX002 (ip), vehicle: Klucel (hydroxypropylcellulose) (HPC) 115 % of control

Cc1cn(CC(=O)c2c[nH]c3ccccc23)c(=O)[nH]c1=O
inactive: dose: 100.0 mg/kg/injection, schedule: Q04DX002 (ip), vehicle: saline with Tween-80 101 % of control | dose: 200.0 mg/kg/injection, schedule: Q04DX002 (ip), vehicle: saline with Tween-80 101 % of control | dose: 400.0 mg/kg/injection, schedule: Q04DX002 (ip), vehicle: saline with Tween-80 93 % of control

Cc1noc(-c2ccc([N+](=O)[O-])o2)n1
inactive: [1] 94 % of control | [2] 105 % of control

CN=C(NCCCN1CCOCC1)c1ccc(NC(=O)c2ccc(C(=O)Nc3ccc(C(=NC)NCCCN4CCOCC4)cc3)cc2)cc1
inactive: dose: 12.5 mg/kg/injection, schedule: Q01DX Z (ip), vehicle: water 103 % of control | dose: 25.0 mg/kg/injection, schedule: Q01DX Z (ip), vehicle: water 113 % of control

Cc1cccc(NC(=O)Oc2ccc(-c3ccccc3)cc2)c1
inactive: dose: 100.0 mg/kg/injection, schedule: Q01DX009 (ip), vehicle: Klucel (hydroxypropylcellulose) (HPC) 98 % of control | [1] 95 % of control | dose: 200.0 mg/kg/injection, schedule: Q01DX009 (ip), vehicle: Klucel (hydroxypropylcellulose) (HPC) 97 % of control | [2] 88 % of control | dose: 400.0 mg/kg/injection, schedule: Q01DX009 (ip), vehicle: Klucel (hydroxypropylcellulose) (HPC) 97 % of control | dose: 400.0 mg/kg/injection, schedule: Q04DX002 (ip), vehicle: Klucel (hydroxypropylcellulose) (HPC) 88 % of control

O=C1N(O)C23CCCC(Br)C2ON=C3C12CCCCC2 (centres undefined)
inactive: dose: 100.0 mg/kg/injection, schedule: Q01DX001 (ip), vehicle: saline with Tween-80 112 % of control | [3] 106 % of control | dose: 200.0 mg/kg/injection, schedule: Q01DX001 (ip), vehicle: saline with Tween-80 112 % of control | [4] 98 % of control | dose: 400.0 mg/kg/injection, schedule: Q01DX001 (ip), vehicle: saline with Tween-80 104 % of control | [5] 95 % of control

c1ccc([P+](CCC[P+](c2ccccc2)(c2ccccc2)c2ccccc2)(c2ccccc2)c2ccccc2)cc1
inactive: dose: 2.0 mg/kg/injection, schedule: Q01DX009 (ip), vehicle: saline 105 % of control | dose: 2.0 mg/kg/injection, schedule: Q04DX003 (ip), vehicle: saline 106 % of control | dose: 4.0 mg/kg/injection, schedule: Q01DX009 (ip), vehicle: saline 108 % of control | dose: 4.0 mg/kg/injection, schedule: Q04DX003 (ip), vehicle: saline 101 % of control | dose: 8.0 mg/kg/injection, schedule: Q01DX009 (ip), vehicle: saline 107 % of control | dose: 8.0 mg/kg/injection, schedule: Q04DX003 (ip), vehicle: saline 94 % of control and 97 % of control

O=[N+]([O-])c1ccccc1C(c1ccc2ccccc2c1O)N1CCOCC1 (centres undefined)
inactive: dose: 100.0 mg/kg/injection, schedule: Q01DX001 (ip), vehicle: saline sonified 86 % of control | dose: 200.0 mg/kg/injection, schedule: Q01DX001 (ip), vehicle: saline sonified 91 % of control | dose: 400.0 mg/kg/injection, schedule: Q01DX001 (ip), vehicle: saline sonified 90 % of control

CNC(=O)Nc1ncn[nH]1
inactive: dose: 75.0 mg/kg/injection, schedule: Q01DX001 (ip), vehicle: carboxymethylcellulose (CMC) 103 % of control | dose: 150.0 mg/kg/injection, schedule: Q01DX001 (ip), vehicle: carboxymethylcellulose (CMC) 98 % of control | dose: 300.0 mg/kg/injection, schedule: Q01DX001 (ip), vehicle: carboxymethylcellulose (CMC) 104 % of control

CCOC(O)(C=O)C1CCCN1 (centres undefined)
inactive: dose: 100.0 mg/kg/injection, schedule: Q01DX001 (ip), vehicle: saline 100 % of control | [6] 104 % of control | dose: 200.0 mg/kg/injection, schedule: Q01DX001 (ip), vehicle: saline 97 % of control | [7] 101 % of control | dose: 400.0 mg/kg/injection, schedule: Q01DX001 (ip), vehicle: saline 97 % of control | dose: 400.0 mg/kg/injection, schedule: Q01DX009 (ip), vehicle: saline 95 % of control

Cc1ccc(C(=O)/C=C/c2ccc3c(c2)OCO3)c(C)c1
inactive: dose: 100.0 mg/kg/injection, schedule: Q04DX002 (ip), vehicle: DMSO 103 % of control | dose: 200.0 mg/kg/injection, schedule: Q04DX002 (ip), vehicle: DMSO 93 % of control | dose: 400.0 mg/kg/injection, schedule: Q04DX002 (ip), vehicle: DMSO 103 % of control

CCOC(=S)NS(=O)(=O)c1ccccc1
inactive: dose: 100.0 mg/kg/injection, schedule: Q01DX001 (ip), vehicle: acetone 98 % of control | dose: 200.0 mg/kg/injection, schedule: Q01DX001 (ip), vehicle: acetone 110 % of control | dose: 400.0 mg/kg/injection, schedule: Q01DX001 (ip), vehicle: acetone 98 % of control

CC[N+](C)(CC)CC1CC(C)OC1=O (centres undefined)
inactive: [8] 95 % of control | [6] 109 % of control | [7] 98 % of control

CCN(CC)CCCC(C)Nc1cccc2c1C(=O)c1ccccc1C2=O (centres undefined)
inactive: dose: 25.0 mg/kg/injection, schedule: Q01DX009 (ip), vehicle: saline 100 % of control | dose: 25.0 mg/kg/injection, schedule: Q04DX002 (ip), vehicle: saline 95 % of control | [8] 93 % of control | dose: 50.0 mg/kg/injection, schedule: Q04DX002 (ip), vehicle: saline 92 % of control | [6] 93 % of control | dose: 100.0 mg/kg/injection, schedule: Q04DX002 (ip), vehicle: saline 100 % of control and 92 % of control

C[N+](C)(C)CSc1ccccc1-n1cccc1
inactive: dose: 12.5 mg/kg/injection, schedule: Q01DX009 (ip), vehicle: Klucel (hydroxypropylcellulose) (HPC) 112 % of control | dose: 12.5 mg/kg/injection, schedule: Q04DX003 (ip), vehicle: Klucel (hydroxypropylcellulose) (HPC) 103 % of control | dose: 25.0 mg/kg/injection, schedule: Q01DX009 (ip), vehicle: Klucel (hydroxypropylcellulose) (HPC) 103 % of control | dose: 25.0 mg/kg/injection, schedule: Q04DX003 (ip), vehicle: Klucel (hydroxypropylcellulose) (HPC) 92 % of control | dose: 50.0 mg/kg/injection, schedule: Q01DX009 (ip), vehicle: Klucel (hydroxypropylcellulose) (HPC) 110 % of control | dose: 50.0 mg/kg/injection, schedule: Q04DX003 (ip), vehicle: Klucel (hydroxypropylcellulose) (HPC) 97 % of control

Clc1ccc(C[As+](c2ccccc2)(c2ccccc2)c2ccccc2)cc1
inactive: dose: 20.0 mg/kg/injection, schedule: Q01DX001 (ip), vehicle: saline 97 % of control

CSCC1OC(n2nnc3c(N)ncnc32)C(O)C1O (centres undefined)
inactive: dose: 100.0 mg/kg/injection, schedule: Q01DX001 (ip), vehicle: Klucel (hydroxypropylcellulose) (HPC) 100 % of control | dose: 200.0 mg/kg/injection, schedule: Q01DX001 (ip), vehicle: Klucel (hydroxypropylcellulose) (HPC) 103 % of control

CCOC(=O)c1c[nH]c(=O)c([N+](=O)[O-])c1O
inactive: dose: 100.0 mg/kg/injection, schedule: Q01DX009 (ip), vehicle: saline with Tween-80 98 % of control | [3] 96 % of control | dose: 200.0 mg/kg/injection, schedule: Q01DX009 (ip), vehicle: saline with Tween-80 109 % of control | [4] 98 % of control | dose: 400.0 mg/kg/injection, schedule: Q01DX009 (ip), vehicle: saline with Tween-80 92 % of control | [5] 90 % of control

CC12CCCCC1SC(F)(F)C2(F)F (centres undefined)
inactive: dose: 12.5 mg/kg/injection, schedule: Q01DX009 (ip), vehicle: saline with Tween-80 95 % of control | dose: 25.0 mg/kg/injection, schedule: Q01DX009 (ip), vehicle: saline with Tween-80 98 % of control

CCC(CC)NC(CC)COC(=O)c1ccc(N)cc1 (centres undefined)
inactive: dose: 75.0 mg/kg/injection, schedule: Q01DX001 (ip), vehicle: other 97 % of control | dose: 150.0 mg/kg/injection, schedule: Q01DX001 (ip), vehicle: other 107 % of control

S=C=NCc1ccccc1
inactive: dose: 75.0 mg/kg/injection, schedule: Q01DX001 (ip), vehicle: saline 97 % of control | dose: 150.0 mg/kg/injection, schedule: Q01DX001 (ip), vehicle: saline 105 % of control
